2 substances from patent US20210017555A1, “METHOD FOR PRODUCING 4-AMINOCINNAMIC ACID, AND VECTOR AND HOST CELL USED IN SAME” (JAPAN SCIENCE AND TECHNOLOGY AGENCY, priority 2018, published 2021) can be followed below.

The nature of data set [1]: Resting-cell reaction of PAL-producing E. coli, 4-nitrophenylalanine to 4-nitrocinnamic acid. The class given is cell-based, Escherichia coli. The note with it: resting cells; for amount of 4-nitrocinnamic acid in the reaction supernatant: 24 hours, 28° C., pH 8.5, 20 mM 4-nitrophenylalanine, versus control Escherichia coli. The method, then: The CamPAL-, LiePAL-, and RgPAL-producing Escherichia coli strains mentioned above were precultured using 3 mL of LB medium containing 40 mg/L kanamycin sulfate at 28° C. for 16 hours with stirring at 300 rpm. 1 mL of this pre-cultured liquid was inoculated to 100 mL of LB medium containing 40 mg/L of kanamycin sulfate, cultured at 30° C. for 4 hours with shaking at 120 rpm, and after the addition of 0.5 mM of IPTG, incubated further for 20 hours. The obtained bacterial cells were washed twice with a reaction buffer (100 mM Tris-HCl buffer, pH 8.5).
The resting cells obtained were suspended in a reaction buffer and reacted at 28° C. with shaking at 300 rpm. 20 mM of 4-nitrophenylalanine was added to the medium every 24 hours while the reaction was continued. The reaction supernatant was periodically collected to quantify 4-nitrophenylalanine and 4-nitrocinnamic acid.
The supernatant was transferred to a centrifuge tube, collected by centrifugation, and the reaction product was quantified using high performance liquid chromatography (HPLC).
The same experiment was also performed using the host Escherichia coli as a control.

Data set [2] can be described thus: Deammonase activity of purified enzymes by absorptiometry. It is filed as biochemical. The note with it: purified recombinant enzyme 2 mg/mL, 50 mM Tris-HCl pH 8.6, 0.3 to 9.6 mM substrate, 380 nm, 10 minutes. The method, then:
• Apparatus: BECKMAN COULTER DU800 UV/Vis Spectrophotometer • Amount of enzyme: 2mg/mL • Buffer solution: 50mM Tris-HCl buffer (pH=8.6) • Concentration of substrate: 0.3mM to 9.6mM • Volume: 200μL • Measurement wavelength: From 4-nitrophenylalanine to 380 nm 4-nitrocinnamic acid: From phenylalanine to 305 nm cinnamic acid: • Measurement period: 10 minutes • Measurement temperature: 25° C.
Each of the CamPAL-, LiePAL-, and RgPAL-producing Escherichia coli strains was inoculated to 5 mL of LB medium containing 30 mg/L kanamycin sulfate, and cultured at 28° C. for 16 hours (hereinafter also may be referred to as “preculture”). […]
The enzyme activity was measured and quantified by measuring the absorbance of the reaction product at the absorption wavelength for 10 minutes using an absorptiometer.
Specifically, regarding the deammonase activity for phenylalanine, 2 mg/mL of each of the above enzymes was added to 50 mM Tris-HCl buffer (pH=8.6) containing 0.3 to 9.6 mM phenylalanine to cause reaction, and the change in absorbance at a wavelength of 305 nm resulting from the formation of cinnamic acid was measured for 10 minutes. […]

Data set [3] can be described thus: Search for carbon source for conversion of 4-nitrocinnamic acid to 4-aminocinnamic acid. The class given is cell-based, Escherichia coli. The settings on record: glycerol added at 10% (compared with glucose, fructose), 2 g/L 4-nitrocinnamic acid, pH 8, 37° C., 24 hours. The method, then: The CamPAL-producing Escherichia coli strain described in Example 1 was first precultured for 16 hours in the same manner as in Example 2. 1 mL of this pre-cultured liquid was inoculated to 100 mL of TB medium containing 80 mg/L kanamycin sulfate, cultured at 30° C. for 4 hours with stirring at 120 rpm, and after the addition of 0.1 mM IPTG, cultured further for 16 hours. 2 g/L of 4-nitrocinnamic acid was added to the resultant culture solution, the pH was adjusted to 8 using 2N NaOH, and glucose, fructose, or glycerol was added as a carbon source at a final concentration of 10%. The cells were cultured at 37° C. for 24 hours with stirring at 300 rpm to cause reaction.
During the reaction, the reaction solution was collected, and 4-aminocinnamic acid was quantified. Specifically, the reaction solution was transferred to a centrifuge tube, the supernatant was recovered by centrifugation, and the reaction product was quantified using the HPLC.

Data set [4] can be described thus: Conversion of 4-nitrophenylalanine to 4-nitrocinnamic acid in 2 L jar fermenter. It is filed as cell-based, Escherichia coli. The settings on record: 24 hours. The method, then: The CamPAL-producing Escherichia coli strain described in Example 1 was used (cell mass: 20 g/L to 30 g/L) was used in a reaction of converting the substrate 4-nitrophenylalanine (group weight 21 g/L) to 4-nitrocinnamic acid, using a 2 L jar fermenter (BNR-C-2LS manufactured by Maruhishi Bio Engineering Co., Ltd.) as a reactor.
Specifically, the CamPAL-producing Escherichia coli strain was precultured using 15 mL of LB medium with […] kanamycin sulfate at 28° C. for 16 hours with stirring at 300 rpm. 12 mL of this preculture liquid was inoculated to a 2 L jar fermenter containing 1.2 L TB medium with 80 mg/L kanamycin sulfate, and cultured at 30° C. for 4 hours with aeration of 3.5 L/min and stirring at 500 rpm. […] The mass of bacterial cells calculated from the value of OD600 was 30 g/L.
After completion of the culture, 21 g/L of 4-nitrophenylalanine was added to the culture medium as the substrate, and the pH was adjusted to 8.5 using a 2N NaOH aqueous solution. […] The reaction solution was collected during the reaction, and 4-nitrophenylalanine and 4-nitrocinnamic acid were quantified as follows: the reaction solution was transferred to a centrifuge tube, the supernatant was recovered by centrifugation, and the reaction product was quantified using HPLC under the above conditions.

Data set [5] can be described thus: Conversion of 4-nitrophenylalanine to 4-aminocinnamic acid in 1 L jar fermenter. The class given is cell-based, Escherichia coli. The note with it: glycerol 10%, pH 8.5, 37° C., 36 hours, air flow 0.02 L/min. Here is the method:
Conversion of 4-nitrophenylalanine to 4-aminocinnamic acid was carried out using a 1 L jar fermenter (manufactured by Biott: BMJ-01), in the presence of glycerol under the conditions mentioned above. Specifically, 5 mL of the preculture liquid of Example 2 was inoculated to a 1 L jar fermenter containing 0.5 L of TB medium supplemented with 80 mg/L kanamycin sulfate, and cultured at 30° C. for 4 hours, with aeration at 0.7 L/min and stirring at 645 rpm. 0.1 mM IPTG was then added, and the culturing was continued for another 20 hours.
After the completion of the culturing, 7 g/L of 4-nitrophenylalanine and glycerol at a final concentration of 10% were added to the culture solution, and the pH was adjusted to 8.5 with 2N NaOH. The reaction was carried out at 37° C. for 36 hours with an air flow rate of 0.02 L/min and stirring at 645 rpm. When the pH dropped below 8.0, 2N NaOH was added. During the reaction, the reaction solution was sampled, and 4-nitrophenylalanine, 4-nitrocinnamic acid and 4-aminocinnamic acid were quantified.

Data set [6] can be described thus: Conversion efficiency by CamPAL at different bacteria mass and substrate mass (resting cells). The settings on record: cell mass 20 g/L or 30 g/L, substrate mass 21 g/L, 37° C., pH 8.5, 24 hours. It is filed as cell-based, Escherichia coli. Here is the method:
The CamPAL-producing Escherichia coli strain described in Example 1 was precultured using 5 mL of LB medium containing 40 mg/L kanamycin sulfate at 28° C. for 16 hours with stirring at 300 rpm. 1 mL of this pre-cultured solution was inoculated to 100 mL of TB medium having the following composition after the addition of 80 mg/L kanamycin sulfate, and cultured at 30° C. for 4 hours with shaking at 120 rpm. After the addition of 0.1 mM of IPTG, the cells were further cultured for 20 hours, recovered from the culture solution by centrifugation, and stored at −80° C. The frozen cells thus obtained were weighed at 10 g/L, 20 g/L and 30 g/L, while the substrate 4-nitrophenylalanine was also weighed at 4.2 g/L, 21 g/L, and 42 g/L.
Each mass of the cells and each mass of the substrate were suspended in a reaction buffer (100 mM Tris-HCl buffer, pH 8.5), and a resting microbial cell reaction was carried out at 37° C. with stirring at 300 rpm. After the reaction for 24 hours, the reaction solution was collected, and the amounts of 4-nitrophenylalanine and 4-nitrocinnamic acid were quantified. For the quantification of each reaction product, the supernatant of the obtained (bacterial cell) reaction solution was transferred to a centrifuge tube, collected by centrifugation, and the reaction product was quantified using the HPLC mentioned above.

Regarding “LiePAL: phenylalanine ammonia-lyase derived from Lithospermum erythrorhizon, SEQ ID NO:3, expressed in E. coli”, the “amount of 4-nitrocinnamic acid in the reaction supernatant” value in data set [1] is “significantly higher than that of the control Escherichia coli”. Further, in data set [2], the “capacity to convert 4-nitrophenylalanine to 4-nitrocinnamic acid” value was “have a capacity to covert 4-nitrophenylalanine to 4-nitrocinnamic acid”.
Regarding “CamPAL: phenylalanine ammonia-lyase derived from Camellia sinensis, SEQ ID NO: 1, expressed in E. coli BL21(DE3)”, in data set [3], the “amount of 4-aminocinnamic acid obtained” value is given as “largest amount of 4-aminocinnamic acid was obtained when glycerol was added”. In data set [1] (20 mM 4-nitrophenylalanine added every 24 hours), the “conversion of 4-nitrophenylalanine to 4-nitrocinnamic acid over time” value is recorded as “proceeded continuously”. In addition, the “amount of 4-nitrocinnamic acid in the reaction supernatant” value in data set [1] is “significantly higher than that of the control Escherichia coli”. The “4-nitrocinnamic acid converted from 21 g/L of 4-nitrophenylalanine” value in data set [4] (2 L jar fermenter, cell mass 30 g/L, pH 8.5, 37° C., without aeration) was found to be 18 g/L; in data set [4] (same reaction, aeration rate 0.04 L/min), 12 g/L. Further, the “4-aminocinnamic acid produced from 7 g/L of 4-nitrophenylalanine” value in data set [5] came to 4.7 g/L. Further, in data set [6], the “conversion efficiency of 4-nitrophenylalanine to 4-nitrocinnamic acid (yield)” value is no less than 60%. Moreover, the “capacity to convert 4-nitrophenylalanine to 4-nitrocinnamic acid” value in data set [2] is reported as “have a capacity to covert 4-nitrophenylalanine to 4-nitrocinnamic acid”.
